According to patent US9695155B2, “Herbicidal substituted pyrimidinyloxy benzene compounds” (E. I. DU PONT DE NEMOURS AND COMPANY, priority 2013, dated 2017):

What was measured:
[1] = tested on: pigweed; test: Test A preemergence; format: in vivo, Amaranthus retroflexus; conditions: Amaranthus retroflexus, pre-emergence
Method in brief: (§1)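 Compounds in non-phytotoxic solvent with surfactant applied as soil spray preemergence, or postemergence to plants 2-10 cm at one- to two-leaf stage, in loam/sand. After approximately 10 days in greenhouse, injury rated visually versus untreated controls, 0 (no effect) to 100 (complete control).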

[2] = tested on: wheat; test: Test A preemergence; format: in vivo, Triticum aestivum
Method in brief: as §1

[3] = tested on: large (Lg) crabgrass; test: Test A postemergence; format: in vivo, Digitaria sanguinalis; conditions: Digitaria sanguinalis, post-emergence, 240 h
Method in brief: as §1

[4] = tested on: giant foxtail; test: Test A postemergence; format: in vivo, Setaria faberii; conditions: Setaria faberi, post-emergence, 240 h
Method in brief: as §1

[5] = tested on: velvetleaf; test: Test A postemergence; format: in vivo, Abutilon theophrasti; conditions: Abutilon theophrasti, post-emergence, 240 h
Method in brief: as §1

[6] = tested on: corn; test: Test A postemergence; format: in vivo, Zea mays; conditions: Zea mays, post-emergence, 240 h
Method in brief: as §1

[7] = tested on: lambsquarters; test: Test C preemergence; format: in vivo, Chenopodium album; conditions: Chenopodium album, pre-emergence
Method in brief: (§2)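 Rated visually on 0–100 (100 = complete control) after 13–15 days under glass. Treatments went onto freshly seeded loam/sand soil or onto emerged plants at the 1- to 4-leaf stage, using a surfactant-containing solvent formulation.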

[8] = tested on: yellow nutsedge; test: Test C preemergence; format: in vivo, Cyperus esculentus; conditions: Cyperus, pre-emergence
Method in brief: as §2

[9] = tested on: pigweed; test: Test C preemergence; format: in vivo, Amaranthus retroflexus; conditions: Amaranthus retroflexus, pre-emergence
Method in brief: as §2

[10] = tested on: ragweed; test: Test C preemergence; format: in vivo, Ambrosia elatior; conditions: Ambrosia artemisiifolia, pre-emergence
Method in brief: as §2

[11] = tested on: waterhemp; test: Test C preemergence; format: in vivo, Amaranthus rudis; conditions: Amaranthus tuberculatus, pre-emergence
Method in brief: as §2

[12] = tested on: galium; test: Test C postemergence; format: in vivo, Galium aparine; conditions: Galium, post-emergence
Method in brief: as §2

[13] = tested on: lambsquarters; test: Test C postemergence; format: in vivo, Chenopodium album; conditions: Chenopodium album, post-emergence
Method in brief: as §2

[14] = tested on: morningglory; test: Test C postemergence; format: in vivo, Ipomoea coccinea; conditions: Ipomoea, post-emergence
Method in brief: as §2

[15] = tested on: kochia; test: Test C postemergence; format: in vivo, Kochia scoparia; conditions: Bassia scoparia, post-emergence
Method in brief: as §2

[16] = 125 g ai/ha, 0 to 100 scale where 0 is no effect and 100 is complete control

N#Cc1cccc(Oc2ncc(Cl)cn2)c1-n1cc(C(F)(F)F)cn1 [Compound 58, 3-[(5-chloro-2-pyrimidinyl)oxy]-2-[4-(trifluoromethyl)-1H-pyrazol-1-yl]benzonitrile]
85%: pest or weed control at 62 g/ha ([8]; 62 g ai/ha, preemergence, scale 0 (no effect) to 100 (complete control), read-out: Nutsedge, Yellow plant response rating) | pest or weed control at 31 g/ha ([10]; Preemergence, 31 g ai/ha, scale 0 to 100, 0 no effect, 100 complete control, read-out: Plant response rating, Ragweed) | pest or weed control at 125 g/ha ([12]; 125 g ai/ha, postemergence, read-out: Plant response rating (0 to 100), Galium)
98%: pest or weed control at 125 g/ha ([13]; 125 g ai/ha, postemergence, read-out: Plant response rating (0 to 100), Lambsquarters) | pest or weed control at 250 g/ha ([13]; 250 g ai/ha, postemergence, read-out: Plant response rating (0 to 100), Lambsquarters) | pest or weed control at 125 g/ha ([14]; 125 g ai/ha, postemergence, read-out: Plant response rating (0 to 100), Morningglory) | pest or weed control at 250 g/ha ([14]; 250 g ai/ha, postemergence, read-out: Plant response rating (0 to 100), Morningglory)
75%: pest or weed control at 31 g/ha ([13]; Postemergence, 31 g ai/ha, scale 0 to 100 (0 no effect, 100 complete control), 13 to 15 days, read-out: Plant response rating, Lambsquarters)
70%: pest or weed control at 31 g/ha ([8]; Preemergence, 31 g ai/ha, scale 0 to 100, 0 no effect, 100 complete control, read-out: Plant response rating, Nutsedge, Yellow) | pest or weed control at 62 g/ha ([12]; Postemergence, 62 g ai/ha, scale 0 to 100 (0 no effect, 100 complete control), read-out: Plant response rating, Galium)
80%: pest or weed control at 31 g/ha ([14]; Postemergence, 31 g ai/ha, scale 0 to 100 (0 no effect, 100 complete control), 13 to 15 days, read-out: Plant response rating, Morningglory)
60: Plant response rating, Wheat [2, 16]
90%: plant injury at 500 g/ha ([2]; Triticum aestivum, pre-emergence, 240 h, 500 g ai/ha, 0 to 100 scale, 0 no effect, 100 complete control, approx. 10 days, read-out: Wheat plant response rating) | pest or weed control at 125 g/ha ([8]; 125 g ai/ha, preemergence, scale 0 (no effect) to 100 (complete control), read-out: Nutsedge, Yellow plant response rating) | pest or weed control at 62 g/ha ([13]; Postemergence, 62 g ai/ha, scale 0 to 100 (0 no effect, 100 complete control), read-out: Plant response rating, Lambsquarters)
100%: pest or weed control at 125 g/ha ([1]; 125 g ai/ha, 0 to 100 scale where 0 is no effect and 100 is complete control, read-out: Plant response rating, Pigweed) | pest or weed control at 500 g/ha ([1]; 240 h, 500 g ai/ha, 0 to 100 scale, 0 no effect, 100 complete control, approx. 10 days, read-out: Pigweed plant response rating) | pest or weed control at 125 g/ha ([3]; 125 g ai/ha, 0 to 100 scale where 0 is no effect and 100 is complete control, read-out: Plant response rating, Crabgrass, Large) | pest or weed control at 500 g/ha ([3]; 500 g ai/ha, 0 to 100 scale, 0 no effect, 100 complete control, read-out: Plant response rating Crabgrass, Large) | pest or weed control at 125 g/ha ([4]; 125 g ai/ha, 0 to 100 scale where 0 is no effect and 100 is complete control, read-out: Plant response rating, Foxtail, Giant) | pest or weed control at 500 g/ha ([4]; 500 g ai/ha, 0 to 100 scale, 0 no effect, 100 complete control, read-out: Plant response rating Foxtail, Giant) | pest or weed control at 125 g/ha ([5]; 125 g ai/ha, 0 to 100 scale where 0 is no effect and 100 is complete control, read-out: Plant response rating, Velvetleaf) | pest or weed control at 500 g/ha ([5]; 500 g ai/ha, 0 to 100 scale, 0 no effect, 100 complete control, read-out: Plant response rating Velvetleaf) | Corn plant response rating (crop injury, 0 = no effect, 100 = complete kill) at 125 g/ha [6, 16] | plant injury at 500 g/ha ([6]; 500 g ai/ha, 0 to 100 scale, 0 no effect, 100 complete control, read-out: Plant response rating Corn) | pest or weed control at 62 g/ha ([7]; 62 g ai/ha, preemergence, scale 0 (no effect) to 100 (complete control), read-out: Lambsquarters plant response rating) | pest or weed control at 125 g/ha ([7]; 125 g ai/ha, preemergence, scale 0 (no effect) to 100 (complete control), read-out: Lambsquarters plant response rating) | pest or weed control at 250 g/ha ([7]; 250 g ai/ha, preemergence, scale 0 (no effect) to 100 (complete control), read-out: Lambsquarters plant response rating) | pest or weed control at 31 g/ha ([7]; Preemergence, 31 g ai/ha, scale 0 to 100, 0 no effect, 100 complete control, read-out: Plant response rating, Lambsquarters) | pest or weed control at 62 g/ha ([9]; 62 g ai/ha, preemergence, scale 0 (no effect) to 100 (complete control), read-out: Pigweed plant response rating) | pest or weed control at 125 g/ha ([9]; 125 g ai/ha, preemergence, scale 0 (no effect) to 100 (complete control), read-out: Pigweed plant response rating) | pest or weed control at 250 g/ha ([9]; 250 g ai/ha, preemergence, scale 0 (no effect) to 100 (complete control), read-out: Pigweed plant response rating) | pest or weed control at 31 g/ha ([9]; Preemergence, 31 g ai/ha, scale 0 to 100, 0 no effect, 100 complete control, read-out: Plant response rating, Pigweed) | pest or weed control at 62 g/ha ([10]; 62 g ai/ha, preemergence, scale 0 (no effect) to 100 (complete control), read-out: Ragweed plant response rating) | pest or weed control at 125 g/ha ([10]; 125 g ai/ha, preemergence, scale 0 (no effect) to 100 (complete control), read-out: Ragweed plant response rating) | pest or weed control at 250 g/ha ([10]; 250 g ai/ha, preemergence, scale 0 (no effect) to 100 (complete control), read-out: Ragweed plant response rating) | pest or weed control at 62 g/ha ([11]; 62 g ai/ha, preemergence, scale 0 (no effect) to 100 (complete control), read-out: Waterhemp plant response rating) | pest or weed control at 125 g/ha ([11]; 125 g ai/ha, preemergence, scale 0 (no effect) to 100 (complete control), read-out: Waterhemp plant response rating) | pest or weed control at 250 g/ha ([11]; 250 g ai/ha, preemergence, scale 0 (no effect) to 100 (complete control), read-out: Waterhemp plant response rating) | pest or weed control at 31 g/ha ([11]; Preemergence, 31 g ai/ha, scale 0 to 100, 0 no effect, 100 complete control, read-out: Plant response rating, Waterhemp) | pest or weed control at 125 g/ha ([15]; 125 g ai/ha, postemergence, read-out: Plant response rating (0 to 100), Kochia) | pest or weed control at 250 g/ha ([15]; 250 g ai/ha, postemergence, read-out: Plant response rating (0 to 100), Kochia)
95%: pest or weed control at 250 g/ha ([8]; 250 g ai/ha, preemergence, scale 0 (no effect) to 100 (complete control), read-out: Nutsedge, Yellow plant response rating) | pest or weed control at 250 g/ha ([12]; 250 g ai/ha, postemergence, read-out: Plant response rating (0 to 100), Galium) | pest or weed control at 62 g/ha ([14]; Postemergence, 62 g ai/ha, scale 0 to 100 (0 no effect, 100 complete control), read-out: Plant response rating, Morningglory) | pest or weed control at 31 g/ha ([15]; Postemergence, 31 g ai/ha, scale 0 to 100 (0 no effect, 100 complete control), 13 to 15 days, read-out: Plant response rating, Kochia) | pest or weed control at 62 g/ha ([15]; Postemergence, 62 g ai/ha, scale 0 to 100 (0 no effect, 100 complete control), read-out: Plant response rating, Kochia)
60%: pest or weed control at 31 g/ha ([12]; Postemergence, 31 g ai/ha, scale 0 to 100 (0 no effect, 100 complete control), 13 to 15 days, read-out: Plant response rating, Galium)
